Results from EP4810052A2, “HCRHR2 SELECTIVE POLYPEPTIDES” (Gubra A/S, priority 2023, dated 2026).
Read-outs that look alike come from different tables or passages of the source. Starred links: 1 amine or outer side, 2 acyl side, 3 side chain; linkers in the order of their positions; H or OH if unused. Non-standard residues stand in square brackets, D forms with d. Residues, ends and D or L forms follow the SMILES beside them. Groups on a side chain read outwards from the residue. *: point of attachment. C20 diacid = O=C(O)CCCCCCCCCCCCCCCCCCC(=O)*; γGlu = O=C(O)[C@H](CCC(=O)[*:2])N[*:1]; NMeI = CC[C@H](C)[C@H](NC)C(=O)O; Nle = CCCC[C@H](N)C(=O)O; AEEA = NCCOCCOCC(=O)O; Aib = CC(C)(N)C(=O)O

Key:
hCRHR1 = target: T1, hCRHR1 (Homo sapiens, UniProt P34998); assay: HTRF cAMP assay, determination of hCRHR1 potency (peptide libraries 5 conc., purified peptides 11 conc.); assay type: cell-based
T1 sequence (P34998 24-415): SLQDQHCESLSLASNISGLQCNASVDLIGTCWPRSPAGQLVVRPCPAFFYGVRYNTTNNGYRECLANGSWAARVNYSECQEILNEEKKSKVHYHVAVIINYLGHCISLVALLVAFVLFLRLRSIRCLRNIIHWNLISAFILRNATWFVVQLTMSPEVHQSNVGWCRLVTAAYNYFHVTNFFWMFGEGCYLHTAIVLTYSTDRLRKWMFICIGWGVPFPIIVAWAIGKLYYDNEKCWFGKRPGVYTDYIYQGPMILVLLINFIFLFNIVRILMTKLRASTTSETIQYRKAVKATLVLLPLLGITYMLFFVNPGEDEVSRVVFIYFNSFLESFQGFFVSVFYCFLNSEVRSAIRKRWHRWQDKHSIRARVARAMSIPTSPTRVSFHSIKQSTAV
Outline: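 Cellular cAMP was read by time-resolved FRET between d2-labelled cAMP and cryptate anti-cAMP antibody. The cells were freshly thawed suspension CHO-K1 cells stably expressing human CRHR1.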

hCRHR2 = target: T2, hCRHR2 (Homo sapiens, UniProt Q13324); assay: HTRF cAMP assay, determination of hCRHR2 potency (peptide libraries 5 conc., purified peptides 11 conc.); assay type: cell-based
T2 sequence (Q13324 1-411): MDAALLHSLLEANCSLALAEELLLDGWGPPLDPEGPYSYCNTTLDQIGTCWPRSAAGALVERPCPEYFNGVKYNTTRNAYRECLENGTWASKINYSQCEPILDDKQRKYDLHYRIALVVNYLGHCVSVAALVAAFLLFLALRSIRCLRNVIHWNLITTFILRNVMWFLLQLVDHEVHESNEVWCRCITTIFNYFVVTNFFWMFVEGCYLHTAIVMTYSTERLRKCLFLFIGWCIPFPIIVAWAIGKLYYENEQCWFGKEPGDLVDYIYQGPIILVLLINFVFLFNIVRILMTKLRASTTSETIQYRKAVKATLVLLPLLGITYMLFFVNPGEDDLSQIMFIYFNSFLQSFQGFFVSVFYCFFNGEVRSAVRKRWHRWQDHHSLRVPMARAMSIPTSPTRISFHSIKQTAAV
Outline: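 EC50 derived by variable-slope sigmoid regression of FRET-based cAMP data; cellular cAMP displaced d2-labelled tracer from cryptate anti-cAMP antibody. Stable human CRHR2 CHO-K1 suspension cells, revived from frozen stocks just before the run.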

[1] = Table 4, library peptides having X^38 = Nle, read-out: hCRHR1 pEC50 (converted)
[2] = Table 4, library peptides having X^38 = Nle, read-out: hCRHR2 pEC50 (converted)
[3] = Table 3, matched molecular pairs X^38 L vs Nle, peptide library of Example 4, read-out: hCRHR1 pEC50 (converted)
[4] = Table 3, matched molecular pairs X^38 L vs Nle, peptide library of Example 4, read-out: hCRHR2 pEC50 (converted)

Row | SMILES | EC50 (hCRHR1; [1]) [nM] | EC50 (hCRHR2; [2]) [nM] | EC50 (hCRHR1; [3]) [nM] | EC50 (hCRHR2; [4]) [nM] | further results
1 | CCCC[C@H](NC(=O)[C@@H](NC(=O)[C@H](CCC(=O)O)NC(=O)[C@H](C)NC(=O)[C@H](CC(N)=O)NC(=O)[C@@H](NC(=O)[C@H](CCCCNC(=O)COCCOCCNC(=O)COCCOCCNC(=O)CC[C@H](NC(=O)CC[C@H](NC(=O)CCCCCCCCCCCCCCCCCCC(=O)O)C(=O)O)C(=O)O)NC(=O)[C@H](C)NC(=O)[C@H](CCC(N)=O)NC(=O)[C@H](CCC(=O)O)NC(=O)[C@H](CCCNC(=N)N)NC(=O)[C@H](C)NC(=O)[C@H](C)NC(=O)[C@H](CCCNC(=N)N)NC(=O)[C@H](C)NC(=O)[C@H](CCCNC(=N)N)NC(=O)[C@H](C)NC(=O)[C@H](CCC(N)=O)NC(=O)[C@H](CO)NC(=O)[C@H](CC(C)C)NC(=O)[C@H](CC(C)C)NC(=O)[C@@H](NC(=O)[C@H](CCC(N)=O)NC(=O)[C@H](CC(C)C)NC(=O)[C@H](CC(C)C)NC(=O)CNC(=O)[C@@H](NC(=O)[C@@H]1CCCN1C(=O)[C@@H](NC(=O)[C@H](CC(=O)O)NC(=O)[C@H](CC(C)C)NC(=O)[C@H](CO)NC(=O)[C@H](CC(C)C)NC(=O)[C@@H](NC(=O)[C@@H](N)[C@@H](C)CC)C(C)C)C(C)C)[C@@H](C)CC)[C@@H](C)CC)[C@@H](C)O)[C@@H](C)CC)C(=O)N[C@@H](C)C(=O)N[C@@H](CCC(=O)O)C(=O)N[C@H](C(N)=O)[C@@H](C)CC [compound 89] (H-IVLSLDVPIGLLQILLSQARARAAREQAK([AEEA-AEEA-γGlu-γGlu-C20 diacid])TNAEI[Nle]AEI-NH2) |  |  |  |  | EC50 (hCRHR1; Table 5, purified peptides, read-out: hCRHR1 EC50): > 5000 nM; EC50 (hCRHR1; library peptides, matched molecular pairs L vs Nle in position X^38, read-out: Potency hCRHR1 pEC50 (converted)): 398000 nM; Selectivity ratio (hCRHR1/ hCRHR2) (hCRHR2; Table 5): >9091; EC50 (hCRHR2; Table 5, purified peptides, read-out: hCRHR2 EC50): 0.55 nM; EC50 (hCRHR2; library peptides, matched molecular pairs L vs Nle in position X^38, read-out: Potency hCRHR2 pEC50 (converted)): 0.398 nM
2 | CCCC[C@H](NC(=O)[C@@H](NC(=O)[C@H](CCC(=O)O)NC(=O)C(C)(C)NC(=O)[C@H](CC(N)=O)NC(=O)[C@@H](NC(=O)[C@H](CCCCNC(=O)COCCOCCNC(=O)COCCOCCNC(=O)CC[C@H](NC(=O)CC[C@H](NC(=O)CCCCCCCCCCCCCCCCCCC(=O)O)C(=O)O)C(=O)O)NC(=O)[C@H](C)NC(=O)[C@H](CCC(N)=O)NC(=O)[C@H](CCC(=O)O)NC(=O)[C@H](CCCNC(=N)N)NC(=O)[C@H](C)NC(=O)[C@H](C)NC(=O)[C@H](CCCNC(=N)N)NC(=O)[C@H](C)NC(=O)[C@H](CCCNC(=N)N)NC(=O)[C@H](C)NC(=O)[C@H](CCC(N)=O)NC(=O)[C@H](Cc1ccccc1)NC(=O)[C@H](CC(C)C)NC(=O)[C@H](CC(C)C)NC(=O)[C@@H](NC(=O)[C@H](CCC(N)=O)NC(=O)[C@H](CC(C)C)NC(=O)[C@H](CC(C)C)NC(=O)CNC(=O)[C@@H](NC(=O)[C@@H]1CCCN1C(=O)[C@@H](NC(=O)[C@H](CC(=O)O)NC(=O)[C@H](CC(C)C)NC(=O)[C@H](CO)NC(=O)[C@H](CC(C)C)NC(=O)[C@@H](NC(=O)[C@@H](NC)[C@@H](C)CC)C(C)C)C(C)C)[C@@H](C)CC)[C@@H](C)CC)[C@@H](C)O)[C@@H](C)CC)C(=O)N[C@@H](C)C(=O)N[C@@H](CCC(=O)O)C(=O)N[C@H](C(N)=O)C(C)C [compound 211] (H-[NMeI]VLSLDVPIGLLQILLFQARARAAREQAK([AEEA-AEEA-γGlu-γGlu-C20 diacid])TN[Aib]EI[Nle]AEV-NH2) | 79400 | 0.0251 |  |  | 
3 | CCCC[C@H](NC(=O)[C@@H](NC(=O)[C@H](CCC(=O)O)NC(=O)C(C)(C)NC(=O)[C@H](CC(N)=O)NC(=O)[C@@H](NC(=O)[C@H](CCCCNC(=O)COCCOCCNC(=O)COCCOCCNC(=O)CC[C@H](NC(=O)CC[C@H](NC(=O)CCCCCCCCCCCCCCCCCCC(=O)O)C(=O)O)C(=O)O)NC(=O)[C@H](C)NC(=O)[C@H](CCC(N)=O)NC(=O)[C@H](CCC(=O)O)NC(=O)[C@H](CCCNC(=N)N)NC(=O)[C@H](C)NC(=O)[C@H](C)NC(=O)[C@H](CCCNC(=N)N)NC(=O)[C@H](C)NC(=O)[C@H](CCCNC(=N)N)NC(=O)[C@H](C)NC(=O)[C@H](CCC(N)=O)NC(=O)[C@H](C)NC(=O)[C@H](CC(C)C)NC(=O)[C@H](CC(C)C)NC(=O)[C@@H](NC(=O)[C@H](CCC(N)=O)NC(=O)[C@H](CC(C)C)NC(=O)[C@H](CC(C)C)NC(=O)CNC(=O)[C@@H](NC(=O)[C@@H]1CCCN1C(=O)[C@@H](NC(=O)[C@H](CC(=O)O)NC(=O)[C@H](CC(C)C)NC(=O)[C@H](CO)NC(=O)[C@H](CC(C)C)NC(=O)[C@@H](NC(=O)[C@@H](NC)[C@@H](C)CC)C(C)C)C(C)C)[C@@H](C)CC)[C@@H](C)CC)[C@@H](C)O)[C@@H](C)CC)C(=O)N[C@@H](C)C(=O)N[C@@H](CCC(=O)O)C(=O)N[C@H](C(N)=O)C(C)C [compound 196] (H-[NMeI]VLSLDVPIGLLQILLAQARARAAREQAK([AEEA-AEEA-γGlu-γGlu-C20 diacid])TN[Aib]EI[Nle]AEV-NH2) | 1000 | 0.0316 |  |  | 
4 | CCCC[C@H](NC(=O)[C@@H](NC(=O)[C@H](CCC(=O)O)NC(=O)[C@H](C)NC(=O)[C@H](CC(N)=O)NC(=O)[C@@H](NC(=O)[C@H](CCCCNC(=O)COCCOCCNC(=O)COCCOCCNC(=O)CC[C@H](NC(=O)CC[C@H](NC(=O)CCCCCCCCCCCCCCCCCCC(=O)O)C(=O)O)C(=O)O)NC(=O)[C@H](C)NC(=O)[C@H](CCC(N)=O)NC(=O)[C@H](CCC(=O)O)NC(=O)[C@H](CCCNC(=N)N)NC(=O)[C@H](C)NC(=O)[C@H](CCC(N)=O)NC(=O)[C@H](CCCNC(=N)N)NC(=O)[C@H](C)NC(=O)[C@H](CCCNC(=N)N)NC(=O)[C@H](C)NC(=O)[C@H](CCC(N)=O)NC(=O)[C@H](CCC(=O)O)NC(=O)[C@H](CC(C)C)NC(=O)[C@H](CC(C)C)NC(=O)[C@@H](NC(=O)[C@H](CCC(N)=O)NC(=O)[C@H](CC(C)C)NC(=O)[C@H](CC(C)C)NC(=O)CNC(=O)[C@@H](NC(=O)[C@@H]1CCCN1C(=O)[C@@H](NC(=O)[C@H](CC(=O)O)NC(=O)[C@H](CC(C)C)NC(=O)[C@H](CO)NC(=O)[C@H](CC(C)C)NC(=O)[C@@H](NC(=O)[C@@H](N)[C@@H](C)CC)C(C)C)C(C)C)[C@@H](C)CC)[C@@H](C)CC)[C@@H](C)O)[C@@H](C)CC)C(=O)N[C@@H](C)C(=O)N[C@@H](CCC(=O)O)C(=O)N[C@H](C(N)=O)[C@@H](C)CC [SEQ ID NO: 30] (H-IVLSLDVPIGLLQILLEQARARQAREQAK([AEEA-AEEA-γGlu-γGlu-C20 diacid])TNAEI[Nle]AEI-NH2) |  |  | 1580 | 0.126 | 
5 | CCCC[C@H](NC(=O)[C@@H](NC(=O)[C@H](CCC(=O)O)NC(=O)[C@H](C)NC(=O)[C@H](CC(N)=O)NC(=O)[C@@H](NC(=O)[C@H](CCCCNC(=O)COCCOCCNC(=O)COCCOCCNC(=O)CC[C@H](NC(=O)CC[C@H](NC(=O)CCCCCCCCCCCCCCCCCCC(=O)O)C(=O)O)C(=O)O)NC(=O)[C@H](C)NC(=O)[C@H](CCC(N)=O)NC(=O)[C@H](CCC(=O)O)NC(=O)[C@H](CCCNC(=N)N)NC(=O)[C@H](C)NC(=O)[C@H](C)NC(=O)[C@H](CCC(=O)O)NC(=O)[C@H](C)NC(=O)[C@H](CCCNC(=N)N)NC(=O)[C@H](C)NC(=O)[C@H](CCC(N)=O)NC(=O)[C@H](CCC(=O)O)NC(=O)[C@H](CC(C)C)NC(=O)[C@H](CC(C)C)NC(=O)[C@@H](NC(=O)[C@H](CCC(N)=O)NC(=O)[C@H](CC(C)C)NC(=O)[C@H](CC(C)C)NC(=O)CNC(=O)[C@@H](NC(=O)[C@@H]1CCCN1C(=O)[C@@H](NC(=O)[C@H](CC(=O)O)NC(=O)[C@H](CC(C)C)NC(=O)[C@H](CO)NC(=O)[C@H](CC(C)C)NC(=O)[C@@H](NC(=O)[C@@H](N)[C@@H](C)CC)C(C)C)C(C)C)[C@@H](C)CC)[C@@H](C)CC)[C@@H](C)O)[C@@H](C)CC)C(=O)N[C@@H](C)C(=O)N[C@@H](CCC(=O)O)C(=O)N[C@H](C(N)=O)[C@@H](C)CC [SEQ ID NO: 24] (H-IVLSLDVPIGLLQILLEQARAEAAREQAK([AEEA-AEEA-γGlu-γGlu-C20 diacid])TNAEI[Nle]AEI-NH2) |  |  | 1000 | 0.398 | 
